Where a name gives a salt, the structure may show the parent alone. Read-outs that look alike come from different tables or passages of the source. A value given as a limit tells only on which side of the number the result lay.

For assay [1], the target named is PI3Kδ (p110δ/p85α) Recombinant Human Protein (Homo sapiens (Human), UniProt O00329). Nature of the assay: PI3Kδ Scintillation Proximity Assay. In kind it is biochemical. As to conditions: read-out: PI3K-delta SPA IC50. The gist of the method:
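Recombinant human p110δ/p85α (3.4 nM) with 20 μM PIP2 and 2 μM ATP plus [γ-33P]ATP, in 20 mM MOPS pH 6.7, 10 mM MgCl2, 5 mM DTT, 0.03% CHAPS, 2% DMSO; 120 min at room temperature. Product captured on WGA SPA beads, scintillation counted; IC50 from percent-of-control curves.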
A general note: SPA uses beads or plates that emit light when radiolabelled molecules are held near them.

Assay [2] concerns Phosphorylated Ribosomal Protein S6 (RPS6) in THP-1 cells. As to the kind of experiment: THP-1 RPS6 ELISA Assay. The class given is cell-based, Human. The following applies: MCP-1 stimulated, phospho-RPS6 ELISA, read-out: THP p-RPS6 ELISA IC50. The procedure, abridged:
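Serum-starved THP-1 cells (2×10^5/well, RPMI) preincubated with compound 2 h at 37° C, then stimulated with 10 nM MCP-1 for 15 min. Lysates assayed by phospho-RPS6 ELISA, absorbance 450 nm (540 nm correction); IC50 from percent inhibition versus log concentration.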
(In general: An ELISA detects its analyte on a solid surface through an enzyme-linked reagent.)

Assay [3] addresses PI3Kγ (p110γ) Recombinant Human Protein (Homo sapiens (Human), UniProt P48736). As to the kind of experiment: PI3K-γ Scintillation Proximity Assay. The class given is biochemical. The following applies: read-out: PI3K-gamma SPA IC50. The gist of the method: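 Recombinant human p110γ (13 nM) with 20 μM PIP2 and 2 μM ATP plus 0.5 μCi [γ-33P]ATP in 20 mM MOPS pH 6.7, 10 mM MgCl2, 5 mM DTT, 0.03% CHAPS, 2% DMSO, 120 min at room temperature. Product captured on WGA SPA beads and counted; IC50 fitted from % of solvent control versus log concentration.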

Chain of PI3Kγ (p110γ) Recombinant Human Protein (P48736 whole entry): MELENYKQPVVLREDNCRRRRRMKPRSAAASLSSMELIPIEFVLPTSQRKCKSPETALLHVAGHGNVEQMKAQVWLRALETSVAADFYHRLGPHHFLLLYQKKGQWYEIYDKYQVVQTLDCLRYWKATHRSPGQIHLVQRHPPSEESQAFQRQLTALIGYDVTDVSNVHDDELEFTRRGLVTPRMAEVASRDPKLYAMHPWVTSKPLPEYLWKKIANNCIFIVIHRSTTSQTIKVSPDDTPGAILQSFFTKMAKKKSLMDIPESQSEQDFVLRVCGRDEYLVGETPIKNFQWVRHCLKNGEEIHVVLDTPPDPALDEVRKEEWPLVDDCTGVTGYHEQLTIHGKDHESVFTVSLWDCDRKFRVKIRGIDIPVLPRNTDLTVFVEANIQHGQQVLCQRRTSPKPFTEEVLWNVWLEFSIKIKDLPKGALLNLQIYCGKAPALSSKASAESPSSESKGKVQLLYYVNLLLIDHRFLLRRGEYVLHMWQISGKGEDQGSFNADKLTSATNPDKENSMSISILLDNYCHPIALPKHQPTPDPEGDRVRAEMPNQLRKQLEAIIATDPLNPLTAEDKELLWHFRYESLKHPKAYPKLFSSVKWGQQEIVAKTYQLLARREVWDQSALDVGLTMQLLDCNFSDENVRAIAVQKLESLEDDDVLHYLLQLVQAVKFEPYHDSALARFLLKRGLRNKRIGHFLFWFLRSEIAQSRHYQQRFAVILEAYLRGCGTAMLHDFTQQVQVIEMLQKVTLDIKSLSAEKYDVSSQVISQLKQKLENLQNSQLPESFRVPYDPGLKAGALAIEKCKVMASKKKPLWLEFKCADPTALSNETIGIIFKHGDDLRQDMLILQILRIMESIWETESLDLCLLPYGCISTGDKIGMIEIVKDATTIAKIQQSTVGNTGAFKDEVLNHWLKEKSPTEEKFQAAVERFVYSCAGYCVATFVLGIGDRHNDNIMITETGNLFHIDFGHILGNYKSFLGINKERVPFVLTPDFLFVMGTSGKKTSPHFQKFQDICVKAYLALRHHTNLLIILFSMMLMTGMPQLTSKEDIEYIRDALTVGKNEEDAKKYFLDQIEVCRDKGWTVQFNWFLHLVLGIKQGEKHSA
Chain of PI3Kδ (p110δ/p85α) Recombinant Human Protein (O00329 whole entry): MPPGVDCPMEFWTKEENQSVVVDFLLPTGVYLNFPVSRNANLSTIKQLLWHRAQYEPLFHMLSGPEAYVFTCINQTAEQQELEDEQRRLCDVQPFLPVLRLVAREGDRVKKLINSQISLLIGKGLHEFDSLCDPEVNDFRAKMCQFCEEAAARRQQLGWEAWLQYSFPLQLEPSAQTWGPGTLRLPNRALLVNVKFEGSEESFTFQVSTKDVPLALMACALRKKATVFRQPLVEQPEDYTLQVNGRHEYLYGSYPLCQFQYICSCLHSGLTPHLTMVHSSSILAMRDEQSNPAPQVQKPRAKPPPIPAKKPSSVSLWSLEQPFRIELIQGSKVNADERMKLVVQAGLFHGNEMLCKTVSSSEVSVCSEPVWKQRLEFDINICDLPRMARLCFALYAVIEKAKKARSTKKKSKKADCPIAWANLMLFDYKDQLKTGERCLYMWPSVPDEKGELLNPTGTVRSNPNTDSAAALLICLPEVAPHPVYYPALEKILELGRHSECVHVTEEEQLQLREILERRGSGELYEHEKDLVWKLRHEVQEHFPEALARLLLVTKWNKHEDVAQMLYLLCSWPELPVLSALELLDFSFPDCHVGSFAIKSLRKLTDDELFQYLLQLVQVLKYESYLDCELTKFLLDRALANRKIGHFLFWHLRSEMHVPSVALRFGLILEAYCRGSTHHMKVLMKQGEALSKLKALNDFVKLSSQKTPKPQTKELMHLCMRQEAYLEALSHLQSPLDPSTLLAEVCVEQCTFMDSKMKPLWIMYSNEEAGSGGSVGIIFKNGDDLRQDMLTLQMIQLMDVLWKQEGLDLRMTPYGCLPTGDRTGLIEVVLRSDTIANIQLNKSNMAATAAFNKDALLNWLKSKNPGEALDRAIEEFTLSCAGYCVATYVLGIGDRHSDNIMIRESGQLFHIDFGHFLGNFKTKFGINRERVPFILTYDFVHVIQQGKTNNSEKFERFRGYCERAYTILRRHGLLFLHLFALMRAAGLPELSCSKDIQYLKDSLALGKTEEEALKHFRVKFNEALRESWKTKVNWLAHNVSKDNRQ
Chain of PI3Kδ (p110δ/p85α) Recombinant Human Protein (P27986 whole entry partner): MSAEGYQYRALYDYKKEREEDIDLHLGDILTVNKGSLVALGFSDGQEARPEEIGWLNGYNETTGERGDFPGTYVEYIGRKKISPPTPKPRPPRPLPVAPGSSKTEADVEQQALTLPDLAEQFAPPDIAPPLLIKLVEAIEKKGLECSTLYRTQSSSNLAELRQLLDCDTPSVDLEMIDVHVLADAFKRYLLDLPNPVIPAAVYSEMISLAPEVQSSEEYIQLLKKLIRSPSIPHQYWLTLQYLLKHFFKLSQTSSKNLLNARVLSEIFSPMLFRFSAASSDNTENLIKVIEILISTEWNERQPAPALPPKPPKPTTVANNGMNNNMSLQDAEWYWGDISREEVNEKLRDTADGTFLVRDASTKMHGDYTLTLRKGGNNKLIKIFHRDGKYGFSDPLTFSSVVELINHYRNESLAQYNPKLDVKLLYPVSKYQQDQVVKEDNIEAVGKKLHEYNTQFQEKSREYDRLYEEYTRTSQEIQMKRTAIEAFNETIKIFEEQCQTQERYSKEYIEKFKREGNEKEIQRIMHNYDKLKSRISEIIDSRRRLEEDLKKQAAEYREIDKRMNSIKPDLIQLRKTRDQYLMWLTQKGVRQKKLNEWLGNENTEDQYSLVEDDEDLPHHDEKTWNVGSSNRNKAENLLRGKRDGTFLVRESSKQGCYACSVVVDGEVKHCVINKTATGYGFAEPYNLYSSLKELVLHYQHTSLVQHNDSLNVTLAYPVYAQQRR

Consider `Cc1[nH]c(-c2cc(-c3cncc(S(C)(=O)=O)c3)ccn2)nc1C(=O)N[C@@H]1CCOC1` [Example 256, 5-Methyl-2-[5-(methylsulfonyl)-3,4′-bipyridin-2′-yl]-N-[(3R)-tetrahydrofuran-3-yl]-1H-imidazole-4-carboxamide trifluoroacetate salt], for which the figures for the IC50 in assay [1], in assay [2] (Homo sapiens) and in assay [3] were ≤ 50 nM, 1000 to 5000 nM and ≤ 50 nM, respectively.

Take `Cc1[nH]c(-c2cc(-c3cncc(N4CCOCC4)c3)ccn2)nc1C(=O)NC1CCCC1` [Example 258, N-Cyclopentyl-5-methyl-2-(5-morpholin-4-yl-3,4′-bipyridin-2′-yl)-1H-imidazole-4-carboxamide]: the IC50 in assay [1] is ≤ 50 nM; in assay [2] (Homo sapiens), ≤ 300 nM; in assay [3], ≤ 50 nM.

For the molecule `Cc1[nH]c(-c2cc(-c3cncc(N4CCOCC4)c3)ccn2)nc1C(=O)N1CC(C(F)(F)F)C1` [Example 262, 2′-(5-Methyl-4-{[3-(trifluoromethyl)azetidin-1-yl]carbonyl}-1H-imidazol-2-yl)-5-morpholin-4-yl-3,4′-bipyridine], the IC50 in assay [1] was ≤ 50 nM; in assay [2] (Homo sapiens) it was 300 to 1000 nM; in assay [3] it was ≤ 50 nM.

As to `Cc1[nH]c(-c2cc(-c3cncc(N4CCOCC4)c3)ccn2)nc1C(=O)N1CC(NC(=O)OC(C)(C)C)C1` [Example 264, tert-Butyl (1-{[5-methyl-2-(5-morpholin-4-yl-3,4′-bipyridin-2′-yl)-1H-imidazol-4-yl]carbonyl}azetidin-3-yl)carbamate], the IC50 is ≤ 50 nM in assay [1], 1000 to 5000 nM in assay [2] (Homo sapiens) and ≤ 100 nM in assay [3].

On to `Cc1[nH]c(-c2cc(-c3cncc(N4CCOCC4)c3)ccn2)nc1C(=O)NC1CCCCC1` [Example 265, N-Cyclohexyl-5-methyl-2-(5-morpholin-4-yl-3,4′-bipyridin-2′-yl)-1H-imidazole-4-carboxamide], for which the figures for the IC50 in assay [1], in assay [2] (Homo sapiens) and in assay [3] were ≤ 50 nM, 300 to 1000 nM and ≤ 50 nM, respectively.

For `Cc1[nH]c(-c2cc(-c3cncc(N4CCOCC4)c3)ccn2)nc1C(=O)NC(C)(C)C` [Example 266, N-(tert-Butyl)-5-methyl-2-(5-morpholin-4-yl-3,4′-bipyridin-2′-yl)-1H-imidazole-4-carboxamide], the IC50 in assay [1] is ≤ 50 nM; in assay [2] (Homo sapiens) it was ≤ 300 nM; in assay [3] it was ≤ 50 nM.

In the case of `Cc1[nH]c(-c2cc(-c3cncc(N4CCOCC4)c3)ccn2)nc1C(=O)N1CC(C)(C)C1` [Example 267, 2′-{4-[(3,3-Dimethylazetidin-1-yl)carbonyl]-5-methyl-1H-imidazol-2-yl}-5-morpholin-4-yl-3,4′-bipyridine], the IC50 in assay [1] was ≤ 50 nM; in assay [2] (Homo sapiens), 1000 to 5000 nM; in assay [3] it was ≤ 50 nM.

Consider `Cc1[nH]c(-c2cc(-c3cncc(N4CCOCC4)c3)ccn2)nc1C(=O)NC(C)C` [Example 268, N-Isopropyl-5-methyl-2-(5-morpholin-4-yl-3,4′-bipyridin-2′-yl)-1H-imidazole-4-carboxamide trifluoroacetate salt], for which the IC50 in assay [1] was ≤ 50 nM; in assay [2] (Homo sapiens), 300 to 1000 nM; in assay [3] it was ≤ 50 nM.

On to `Cc1[nH]c(-c2cc(-c3cncc(N4CCOCC4)c3)ccn2)nc1C(=O)NC1CCOCC1` [Example 269, 5-Methyl-2-(5-morpholin-4-yl-3,4′-bipyridin-2′-yl)-N-(tetrahydro-2H-pyran-4-yl)-1H-imidazole-4-carboxamide trifluoroacetate salt], for which the IC50 is ≤ 50 nM in assay [1], 300 to 1000 nM in assay [2] (Homo sapiens) and ≤ 50 nM in assay [3].

As for `Cc1[nH]c(-c2cc(-c3cncc(N4CCOCC4)c3)ccn2)nc1C(=O)N[C@@H]1CCOC1` [Example 270, 5-Methyl-2-(5-morpholin-4-yl-3,4′-bipyridin-2′-yl)-N-[(3R)-tetrahydrofuran-3-yl]-1H-imidazole-4-carboxamide trifluoroacetate salt], the IC50 in assay [1] was ≤ 50 nM; in assay [2] (Homo sapiens), 300 to 1000 nM; in assay [3] it was ≤ 50 nM.

In the case of `Cc1[nH]c(-c2cc(-c3cncc(N4CCOCC4)c3)ccn2)nc1C(=O)N[C@H]1CCOC1` [Example 271, 5-Methyl-2-(5-morpholin-4-yl-3,4′-bipyridin-2′-yl)-N-[(3S)-tetrahydrofuran-3-yl]-1H-imidazole-4-carboxamide trifluoroacetate salt], the results for the IC50 in assay [1], in assay [2] (Homo sapiens) and in assay [3] were ≤ 50 nM, 300 to 1000 nM and ≤ 50 nM, respectively.

Consider `Cc1[nH]c(-c2cc(-c3cncc(N4CCOCC4)c3)ccn2)nc1C(=O)NCc1ccccc1` [Example 272, N-Benzyl-5-methyl-2-(5-morpholin-4-yl-3,4′-bipyridin-2′-yl)-1H-imidazole-4-carboxamide trifluoroacetate salt], for which the IC50 in assay [1] is ≤ 50 nM; in assay [2] (Homo sapiens) it was ≤ 300 nM; in assay [3], ≤ 50 nM.

`Cc1[nH]c(-c2cc(-c3cncc(N4CCOCC4)c3)ccn2)nc1C(=O)N[C@@H](C)c1ccccc1` [Example 273, 5-Methyl-2-(5-morpholin-4-yl-3,4′-bipyridin-2′-yl)-N-[(1S)-1-phenylethyl]-1H-imidazole-4-carboxamide trifluoroacetate salt]: the IC50 is ≤ 50 nM in assay [1], ≤ 300 nM in assay [2] (Homo sapiens) and ≤ 50 nM in assay [3].

With `Cc1[nH]c(-c2cc(-c3cncc(N4CCOCC4)c3)ccn2)nc1C(=O)N[C@H](C)c1ccccc1` [Example 274, 5-Methyl-2-(5-morpholin-4-yl-3,4′-bipyridin-2′-yl)-N-[(1R)-1-phenylethyl]-1H-imidazole-4-carboxamide trifluoroacetate salt], the IC50 in assay [1] is ≤ 50 nM; in assay [2] (Homo sapiens), 1000 to 5000 nM; in assay [3] it was ≤ 50 nM.

`COC[C@H](NC(=O)c1nc(-c2cc(-c3cncc(N4CCOCC4)c3)ccn2)[nH]c1C)c1ccccc1` [Example 275, N-[(1R)-2-Methoxy-1-phenylethyl]-5-methyl-2-(5-morpholin-4-yl-3,4′-bipyridin-2′-yl) 1H-imidazole-4-carboxamide trifluoroacetate salt]: the IC50 in assay [1] is ≤ 50 nM; in assay [2], ≤ 300 nM; in assay [3], ≤ 50 nM.

Take `COC[C@@H](NC(=O)c1nc(-c2cc(-c3cncc(N4CCOCC4)c3)ccn2)[nH]c1C)c1ccccc1` [Example 276, N-[(1S)-2-Methoxy-1-phenylethyl]-5-methyl-2-(5-morpholin-4-yl-3,4′-bipyridin-2′-yl) 1H-imidazole-4-carboxamide trifluoroacetate salt]: the IC50 in assay [1] was ≤ 50 nM; in assay [2], ≤ 300 nM; in assay [3] it was ≤ 100 nM.

Turning to `Cc1[nH]c(-c2cc(-c3cncc(N4CCOCC4)c3)ccn2)nc1C(=O)NC1C2CC3CC(C2)CC1C3` (stereo not drawn) [Example 278, N-2-Adamantyl-5-methyl-2-(5-morpholin-4-yl-3,4′-bipyridin-2′-yl)-1H-imidazole-4-carboxamide trifluoroacetate salt], the IC50 was ≤ 50 nM in assay [1], 300 to 1000 nM in assay [2] (Homo sapiens) and ≤ 50 nM in assay [3].

Turning to `Cc1[nH]c(-c2cc(-c3cncc(N4CCOCC4)c3)ccn2)nc1C(=O)N[C@H]1CCN(Cc2ccccc2)C1` [Example 279, N-[(3S)-1-Benzylpyrrolidin-3-yl]-5-methyl-2-(5-morpholin-4-yl-3,4′-bipyridin-2′-yl)-1H-imidazole-4-carboxamide trifluoroacetate salt], the IC50 is ≤ 50 nM in assay [1], ≤ 300 nM in assay [2] (Homo sapiens) and ≤ 100 nM in assay [3].

The values are drawn from patent publication US11352340B2, “Pyridine and pyridimine compounds as PI3K-gamma inhibitors” (Incyte Corporation, priority 2016, dated 2022).
